One assay deals with CbuqPBP2 (Cyrtotrachelus buqueti, UniProt A0A1L3KPR5). Description: Fluorescence competitive binding assay with 1-NPN probe. The following applies: increasing ligand concentration, Figure 4C,D. On the procedure:
The fluorescent probe 1-NPN and the tested chemicals with a purity of at least more than 96% were purchased from Aladdin Biochemical Technology Co., LTD. (Shanghai, China). The fluorescence binding assay was carried out on a Lumina fluorescence spectrophotometer (Thermo Fisher Scientific, MA, USA) using a 1 cm light path quartz cuvette at 25 °C. All the slit widths for both excitation and emission were 5 nm. The 1-NPN and all the compounds tested were dissolved in chromatography-grade methanol to a final concentration of 1 mM. The CbuqPBP2 protein was dissolved in 50 mM Tris–HCl buffer at pH 7.4 to a final concentration of 2 μM. […] The scanning range was 350–550 nm at each concentration, and the maximum fluorescence intensities were plotted against the free ligand concentration.

The subject of assay [1] is antennae of male C. buqueti adults. Description: EAG assays after RNAi of CbuqPBP2. Conditions: 72 h after dsRNA injection; chemical at 100 μg/μL in n-hexane. The format is in vivo, Cyrtotrachelus buqueti. On the procedure:
To evaluate the function of CbuqPBP2 in C. buqueti olfaction, the dsRNA-injected, RNase-free water-injected, or non-injected male adults were subjected to EAG (Syntech, Hilversum, Netherlands) at 72 h after injection. Based on the results of the fluorescence competition binding assay, the chemicals (dibutyl phthalate, ethyl hexanoate, styrene and linalool) that bound with CbuqPBP2 were selected for electrophysiological experiments. The tested chemicals were diluted in n-hexane to prepare a solution at a concentration of 100 μg/μL, and n-hexane was used as a blank control.
The antenna for EAG detection was cut off and amputated at the base and tip. The basal and distal ends of the excised antenna were linked to a reference electrode and recording electrode by one teardrop of Spectra R360 electrically conductive gel, respectively. A filter paper strip (2 cm × 0.5 cm) loaded with ten microliters of each chemical solution was inserted into the sample tube (10 cm in length) as a stimuli source. An air-stimulus controller (CS-05 model) was used to deliver the stimulus. The stimulation time was 0.5 s, and the interval for antennal recovery was 30 s. The response of the antenna to each chemical was detected using a high-impedance amplifier (IDAC2) and analyzed using the EAG software (version 2.0) supplied with the instrument. The chemicals were tested randomly for each antenna. The antenna was stimulated one time with n-hexane before and after each chemical stimulation. Three to six antennae were measured for each chemical in independent experiments, and each antenna was tested three times. EAG responses were recorded in mV, and the relative EAG response of each chemical was calculated by using the following formula: Relative EAG response=EAGA/EAGCK1+EAGCK2/2 where EAG(A) represents the EAG response to the chemical; EAGCK1 and EAKCK2 represent EAG responses to n-hexane before and after each chemical stimulation, respectively.

In the next assay the test system is CbuqPBP1. Details: method as in doi:10.1111/phen.12209. Conditions: cited from earlier work.
Assay [2] has as its system virgin males of C. buqueti. Also noted: method as in earlier work. Conditions: compared with mated males and virgin females; cited from earlier work.

Molecules are shown by their SMILES. “Also recorded” adds a separate entry of the source.

Sequence of CbuqPBP2 (A0A1L3KPR5 entry or part of it): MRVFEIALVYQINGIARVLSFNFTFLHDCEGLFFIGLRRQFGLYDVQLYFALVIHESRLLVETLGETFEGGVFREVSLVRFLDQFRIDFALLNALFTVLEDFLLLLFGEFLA

With `CC(C)=CCC/C(C)=C/CC/C(C)=C/CC/C=C(\C)CC/C=C(\C)CCC=C(C)C` [Squalene], at CbuqPBP2, the “fluorescence intensity in competitive binding curve” value is given as “the fluorescence intensity enhanced as the ligand concentration increased”.
On to `CCCCCC(=O)OCC` [Ethyl hexanoate], for which the “EAG response of dsCbuqPBP2-treated male adults versus water-injected and non-injected controls” value in assay [1] is reported as “did not significantly decrease”.
As for `C=Cc1ccccc1` [Styrene], in assay [1], the “EAG response of dsCbuqPBP2-treated male adults versus water-injected and non-injected controls” value was “significantly reduced”. Also, the “binding affinity of CbuqPBP1” value with CbuqPBP1 is “lower binding affinity”.
Consider `C=CC(C)(O)CCC=C(C)C` (stereo not drawn) [Linalool], for which, in assay [1], the “EAG response of dsCbuqPBP2-treated male adults versus water-injected and non-injected controls” value is “not significantly reduced; also recorded: did not influence the EAG response”.
`c1ccc2[nH]ccc2c1` [Indole]: on CbuqPBP2, the “fluorescence intensity in competitive binding curve” value is listed as “the fluorescence intensity enhanced as the ligand concentration increased”.
As for `CCCCOC(=O)c1ccccc1C(=O)OCCCC` [Dibutyl phthalate], the attraction effect entry in assay [2] is listed as “more significant attraction effect”. Also, the “EAG response of dsCbuqPBP2-treated male adults versus water-injected and non-injected controls” value in assay [1] was “significantly reduced”. In the assay on CbuqPBP1, the “binding affinity of CbuqPBP1” value is given as “strongest binding affinity”.
